Among the data in US20240270740A1, “INHIBITORS OF CYCLIC GMP-AMP SYNTHASE AND USES THEREOF” (Ventus Therapeutics U.S., Inc., priority 2022, published 2024) are IC50 values, retold here.

For the assay, the target named is hcGAS (Homo sapiens, UniProt Q8N884). The experiment in a line: hcGAS LCMS assay (direct measurement of cGAMP production). The following applies: 0.5 nM hcGAS, 100 μM ATP, 100 μM GTP, 25 nM dsDNA, 4 h incubation. The class given is biochemical. The method, then: cGAS catalyzes the cyclization of ATP and GTP to produce cGAMP, which is the activating ligand of STING. Human cGAS (hcGAS) inhibition can thus be quantified by measuring how much cGAMP is formed either indirectly, by monitoring ATP-depletion as in the hcGAS Kinase-Glo assay (as described below), or directly, such as using the hcGAS LCMS assay (as described below).
hcGAS, sequence (Q8N884 whole entry): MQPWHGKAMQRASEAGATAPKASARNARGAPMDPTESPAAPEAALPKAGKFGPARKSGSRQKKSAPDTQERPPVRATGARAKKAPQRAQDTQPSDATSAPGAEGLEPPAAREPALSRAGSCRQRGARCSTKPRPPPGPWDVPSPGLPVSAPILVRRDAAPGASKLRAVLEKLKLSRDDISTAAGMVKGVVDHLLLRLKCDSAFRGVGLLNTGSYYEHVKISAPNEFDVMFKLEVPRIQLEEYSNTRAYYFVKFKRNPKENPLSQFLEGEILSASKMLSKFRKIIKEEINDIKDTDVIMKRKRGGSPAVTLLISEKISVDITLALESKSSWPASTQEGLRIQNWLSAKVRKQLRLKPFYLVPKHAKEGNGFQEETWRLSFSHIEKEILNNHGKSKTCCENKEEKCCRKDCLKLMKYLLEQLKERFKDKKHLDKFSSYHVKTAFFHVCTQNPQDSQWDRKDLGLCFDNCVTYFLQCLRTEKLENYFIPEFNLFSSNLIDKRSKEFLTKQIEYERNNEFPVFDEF
Compounds were tested for their h-cGAS inhibition activity using direct measurement of cGAMP production by LC/MS. Briefly, compounds were incubated with enzyme and substrates for 4 hours (see Table C), before the reaction was stopped with 3 volumes of 70/30 Acetonitrile/H2O mix containing 0.15 mM cGAMP-^13C10^5N5 as internal standard and mixed for […]. After centrifugation (3700 rpm, 10 min, 10° Celsius), […] of each reaction was collected and mixed to equal volume of Acetonitrile. Samples were then analyzed on Qexective (Column: XBridge BEH Amide Column, 130 Å, 3.5 μm, 3 mm×50 mm, Mobile phase A: 10 mM Ammonium acetate in 95/5% H2O/Acetonitrile (0.5% DMSO), Mobile phase B: Acetonitrile (0.5% DMSO).
The results of the assay, expressed as IC50 values, are reported in Table D with the following designations: A represents an IC50 value<0.005 μM; B represents an IC50 value≥0.005 μM and <0.02 μM, C represents an IC50 value≥0.02 μM and <0.06 μM; D represents an IC50 value≥0.06 and <0.2 μM; E represents an IC50 value≥0.2.

As for `COc1c(N[C@H]2CCC[C@H]2C#N)cc(C(=O)Nc2nnc(-n3nccc3C)s2)oc1=O` (single isomer, unassigned) [Compound 74], the IC50 was less than 0.005 µM. To `COC[C@@H]1CCN1c1cc(C(=O)Nc2nnc(-n3nccc3C)s2)oc(=O)c1OC` [Compound 95, (S)-3-methoxy-4-(2-(methoxymethyl)azetidin-1-yl)-N-(5-(5-methyl-1H-pyrazol-1-yl)-1,3,4-thiadiazol-2-yl)-2-oxo-2H-pyran-6-carboxamide] belongs 0.005 to 0.02 µM; to `COc1c(NC[C@H](C)OC)cc(C(=O)Nc2nnc(-c3c(Cl)ccn3C)s2)oc1=O` [Compound 193, (S)-N-(5-(3-chloro-1-methyl-1H-pyrrol-2-yl)-1,3,4-thiadiazol-2-yl)-3-methoxy-4-((2-methoxypropyl)amino)-2-oxo-2H-pyran-6-carboxamide], less than 0.005 µM; to `COc1c(N2CCC[C@H]2CC#N)cc(C(=O)Nc2nnc(-n3nccc3C)s2)oc1=O` [Compound 175, (S)-4-(2-(cyanomethyl)pyrrolidin-1-yl)-3-methoxy-N-(5-(5-methyl-1H-pyrazol-1-yl)-1,3,4-thiadiazol-2-yl)-2-oxo-2H-pyran-6-carboxamide], 0.005 to 0.02 µM.

As for `COc1c(N[C@@H]2Cc3ccccc3[C@@H]2O)cc(C(=O)Nc2nnc(-n3nccc3C)s2)oc1=O` (racemic) [Rac-81, 4-(((1S,2R)-1-hydroxy-2,3-dihydro-1H-inden-2-yl)amino)-3-methoxy-N-(5-(5-methyl-1H-pyrazol-1-yl)-1,3,4-thiadiazol-2-yl)-2-oxo-2H-pyran-6-carboxamide], the IC50 was not below 0.2 µM. In turn, `COc1c(NC23CC(C2)C3)cc(C(=O)Nc2nnc(-n3nccc3N)s2)oc1=O` [Compound 178, N-(5-(5-amino-1H-pyrazol-1-yl)-1,3,4-thiadiazol-2-yl)-4-(bicyclo[1.1.1]pentan-1-ylamino)-3-methoxy-2-oxo-2H-pyran-6-carboxamide] registered an IC50 of 0.02 to 0.06 µM. Next, `COc1c(N[C@H]2COC[C@H]2OC)cc(C(=O)Nc2nnc(-n3nccc3C)s2)oc1=O` [Compound 160, 3-Methoxy-4-(((3S,4S)-4-methoxytetrahydrofuran-3-yl)amino)-N-(5-(5-methyl-1H-pyrazol-1-yl)-1,3,4-thiadiazol-2-yl)-2-oxo-2H-pyran-6-carboxamide]: 0.005 to 0.02 µM; `COc1c(NC23CCC(CC2)CC3)cc(C(=O)Nc2nnc(-n3nccc3C)s2)oc1=O` [Compound 18, 4-(bicyclo[2.2.2]octan-1-ylamino)-3-methoxy-N-(5-(5-methyl-1H-pyrazol-1-yl)-1,3,4-thiadiazol-2-yl)-2-oxo-2H-pyran-6-carboxamide]: less than 0.005 µM.

The compound `COCC(COC)Nc1cc(C(=O)Nc2nnc(-n3nccc3CO)s2)oc(=O)c1OC` [Compound 143, 4-((1,3-dimethoxypropan-2-yl)amino)-N-(5-(5-(hydroxymethyl)-1H-pyrazol-1-yl)-1,3,4-thiadiazol-2-yl)-3-methoxy-2-oxo-2H-pyran-6-carboxamide] displayed an IC50 of 0.02 to 0.06 µM. Next, `COC[C@@H](C)Nc1cc(C(=O)Nc2nnc(-n3nccc3CO)s2)oc(=O)c1OC` [Compound 142, (R)—N-(5-(5-(hydroxymethyl)-1H-pyrazol-1-yl)-1,3,4-thiadiazol-2-yl)-3-methoxy-4-((1-methoxypropan-2-yl)amino)-2-oxo-2H-pyran-6-carboxamide]: 0.02 to 0.06 µM. To `COc1c(N[C@H]2CCC[C@H]2OC)cc(C(=O)Nc2nnc(-c3c(Cl)ccn3C)s2)oc1=O` (single isomer, unassigned) [47*] belongs less than 0.005 µM; to `COc1c(N[C@@H](C)[C@@H](C)OC)cc(C(=O)Nc2nnc(-n3nccc3C)s2)oc1=O` [Compound 207, 3-methoxy-4-(((2S,3R)-3-methoxybutan-2-yl)amino)-N-(5-(5-methyl-1H-pyrazol-1-yl)-1,3,4-thiadiazol-2-yl)-2-oxo-2H-pyran-6-carboxamide], 0.02 to 0.06 µM. Next, `COc1c(N[C@H](C)[C@H](C)OC)cc(C(=O)Nc2nnc(-n3nccc3C)s2)oc1=O` [Compound 166, 3-methoxy-4-(((2R,3S)-3-methoxybutan-2-yl)amino)-N-(5-(5-methyl-1H-pyrazol-1-yl)-1,3,4-thiadiazol-2-yl)-2-oxo-2H-pyran-6-carboxamide]: less than 0.005 µM; `COCCOc1c(NC23CC(C2)C3)cc(C(=O)Nc2nnc(-n3nccc3N)s2)oc1=O` [Compound 210, N-(5-(5-amino-1H-pyrazol-1-yl)-1,3,4-thiadiazol-2-yl)-4-(bicyclo[1.1.1]pentan-1-ylamino)-3-(2-methoxyethoxy)-2-oxo-2H-pyran-6-carboxamide]: 0.005 to 0.02 µM; `COCC1(Nc2cc(C(=O)Nc3nnc(-n4nccc4C)s3)oc(=O)c2OC)COC1` [Compound 98, 3-methoxy-4-((3-(methoxymethyl)oxetan-3-yl)amino)-N-(5-(5-methyl-1H-pyrazol-1-yl)-1,3,4-thiadiazol-2-yl)-2-oxo-2H-pyran-6-carboxamide]: 0.005 to 0.02 µM.

Turning to `COc1c(NC2CCCC2(C)O)cc(C(=O)Nc2nnc(-n3nccc3C)s2)oc1=O` (racemic) [Rac-167, 4-((2-hydroxy-2-methylcyclopentyl)amino)-3-methoxy-N-(5-(5-methyl-1H-pyrazol-1-yl)-1,3,4-thiadiazol-2-yl)-2-oxo-2H-pyran-6-carboxamide], the IC50 is less than 0.005 µM. Next, `COc1c(NC2CC3(COC3)C2)cc(C(=O)Nc2nnc(-n3nccc3C)s2)oc1=O` [Compound 50, 4-((2-oxaspiro[3.3]heptan-6-yl)amino)-3-methoxy-N-(5-(5-methyl-1H-pyrazol-1-yl)-1,3,4-thiadiazol-2-yl)-2-oxo-2H-pyran-6-carboxamide]: 0.06 to 0.2 µM. Next, `COc1c(N[C@H]2CCC[C@H]2OC)cc(C(=O)Nc2nnc(-n3nccc3C)s2)oc1=O` (single isomer, unassigned) [214*]: 0.005 to 0.02 µM. In the case of `COc1c(N[C@H]2CCC[C@H]2OC(F)F)cc(C(=O)Nc2nnc(-n3nccc3C)s2)oc1=O` [Compound 212, 4-(((1S,2R)-2-(difluoromethoxy)cyclopentyl)amino)-3-methoxy-N-(5-(5-methyl-1H-pyrazol-1-yl)-1,3,4-thiadiazol-2-yl)-2-oxo-2H-pyran-6-carboxamide], the IC50 is 0.005 to 0.02 µM. As for `COc1c(N[C@H]2CCCC[C@@H]2OC)cc(C(=O)Nc2nnc(-n3nccc3C)s2)oc1=O` [Compound 70, 3-methoxy-4-(((1S,2S)-2-methoxycyclohexyl)amino)-N-(5-(5-methyl-1H-pyrazol-1-yl)-1,3,4-thiadiazol-2-yl)-2-oxo-2H-pyran-6-carboxamide], the IC50 lay in the range of 0.005 to 0.02 µM.

Consider `COc1c(N[C@@H]2CCN(C)C2=O)cc(C(=O)Nc2nnc(-n3nccc3C)s2)oc1=O` (single isomer, unassigned) [72*], for which the IC50 lay within 0.005 to 0.02 µM.

With `COc1c(N[C@H]2CC[C@H]2OC)cc(C(=O)Nc2nnc(-c3c(Cl)ccn3C)s2)oc1=O` (single isomer, unassigned) [Compound 133*], the IC50 was in the range of 0.005 to 0.02 µM. To `COc1c(NC23COC(C2)C3)cc(C(=O)Nc2nnc(-n3nccc3C)s2)oc1=O` [Compound 51, 4-((2-oxabicyclo[2.1.1]hexan-4-yl)amino)-3-methoxy-N-(5-(5-methyl-1H-pyrazol-1-yl)-1,3,4-thiadiazol-2-yl)-2-oxo-2H-pyran-6-carboxamide] belongs 0.005 to 0.02 µM; to `COC[C@H](C1CC1)N1CCOc2c1cc(C(=O)Nc1nnc(-n3nccc3C)s1)oc2=O` [Compound 226, (S)-1-(1-cyclopropyl-2-methoxyethyl)-N-(5-(5-methyl-1H-pyrazol-1-yl)-1,3,4-thiadiazol-2-yl)-5-oxo-1,2,3,5-tetrahydropyrano[3,4-b][1,4]oxazine-7-carboxamide], less than 0.005 µM; to `COCC1(Nc2cc(C(=O)Nc3nnc(-n4nccc4C)s3)oc(=O)c2OC)CC1` [Compound 97, 3-methoxy-4-((1-(methoxymethyl)cyclopropyl)amino)-N-(5-(5-methyl-1H-pyrazol-1-yl)-1,3,4-thiadiazol-2-yl)-2-oxo-2H-pyran-6-carboxamide], 0.005 to 0.02 µM.

Turning to `COc1c(N[C@@H]2CC[C@H](OC)C2)cc(C(=O)Nc2nnc(-n3nccc3C)s2)oc1=O` (single isomer, unassigned) [125*], the IC50 was 0.005 to 0.02 µM. Next, `COc1c(N[C@@H]2c3ccccc3C[C@@H]2O)cc(C(=O)Nc2nnc(-n3nccc3C)s2)oc1=O` (racemic) [Rac-28, 4-(((cis)-2-hydroxy-2,3-dihydro-1H-inden-1-yl)amino)-3-methoxy-N-(5-(5-methyl-1H-pyrazol-1-yl)-1,3,4-thiadiazol-2-yl)-2-oxo-2H-pyran-6-carboxamide]: not below 0.2 µM; `COc1c(N2CCC[C@@H]2CC#N)cc(C(=O)Nc2nnc(-n3nccc3C)s2)oc1=O` [Compound 174, (R)-4-(2-(cyanomethyl)pyrrolidin-1-yl)-3-methoxy-N-(5-(5-methyl-1H-pyrazol-1-yl)-1,3,4-thiadiazol-2-yl)-2-oxo-2H-pyran-6-carboxamide]: 0.02 to 0.06 µM.
